Test results taken from patent US8653089B2, “Heterocyclic compounds and methods of use” (F. Hoffmann-La Roche AG, priority 2011, dated 2014).

test system: production of CD69 by B lymphocytes in human whole blood activated by crosslinking surface IgM; assay: CD69 human whole blood assay (Example 903), FACS; format: cell-based; conditions: B lymphocytes activated with goat F(ab')2 anti-human IgM, read-out: CD69 Hu Blood FACS IC50
Source text: There is good evidence that B-cells play a key role in the pathogenesis of autoimmune and/or inflammatory disease. Protein-based therapeutics that deplete B cells such as Rituxan are effective against autoantibody-driven inflammatory diseases such as rheumatoid arthritis (Rastetter et al. (2004) Annu Rev Med 55:477). CD69 is the early activation marker in leukocytes including T cells, thymocytes, B cells, NK cells, neutrophils, and eosinophils. The CD69 human whole blood assay (Example 903) determines the ability of compounds to inhibit the production of CD69 by B lymphocytes in human whole blood activated by crosslinking surface IgM with goat F(ab′)2 anti-human IgM.

IC50 | SMILES
175 nM | OCC(Nc1ncnc2nc[nH]c12)c1nc2ccc(F)cc2n1-c1ccccc1 (stereo not drawn) [Example 172, 2-(6-Fluoro-1-phenyl-1H-benzoimidazol-2-yl)-2-(7H-purin-6-ylamino)-ethanol]
78.9 nM | CC(Nc1ncnc2[nH]cnc12)c1nc2ccc(F)cc2n1-c1ccc(C#N)cc1 (stereo not drawn) [Example 248, 4-{6-Fluoro-2-[1-(9H-purin-6-ylamino)-ethyl]-benzoimidazol-1-yl}-benzonitrile]

same assay, conditions: Homo sapiens, Lymphocyte, B lymphocytes activated with goat F(ab')2 anti-human IgM, read-out: CD69 Hu Blood FACS IC50

IC50 | SMILES
25.7 nM | C[C@H](Nc1ncnc2[nH]cnc12)c1nc2ccc(F)cc2n1-c1cncc(F)c1 [Example 260, {(S)-1-[6-Fluoro-1-(5-fluoro-pyridin-3-yl)-1H-benzoimidazol-2-yl]-ethyl}-(9H-purin-6-yl)-amine]
481 nM | C[C@H](Nc1ncncc1C#N)c1nc2ccc(F)cc2n1-c1ccccc1 [Example 316, 4-[(S)-1-(6-Fluoro-1-phenyl-1H-benzoimidazol-2-yl)-ethylamino]-pyrimidine-5-carbonitrile]
3900 nM | C[C@H](Nc1ccncc1C#N)c1nc2ccc(F)cc2n1-c1ccccc1 [Example 312, 4-[(S)-1-(6-Fluoro-1-phenyl-1H-benzoimidazol-2-yl)-ethylamino]-nicotinonitrile]
23.2 nM | C[C@H](Nc1ncnc(N)c1C#N)c1nc2ccc(F)c(C(=O)N3CCOCC3)c2n1C1CC1 [Example 401, 4-amino-6-[[(1S)-1-[1-cyclopropyl-6-fluoro-7-(morpholine-4-carbonyl)benzimidazol-2-yl]ethyl]amino]pyrimidine-5-carbonitrile]
27.5 nM | C[C@H](Nc1ncnc(N)c1C#N)c1nc2ccc(F)cc2n1-c1ccccn1 [Example 275, 4-Amino-6-[(S)-1-(6-fluoro-1-pyridin-2-yl-1H-benzoimidazol-2-yl)-ethylamino]-pyrimidine-5-carbonitrile]
42.9 nM | CCC(Nc1ncnc2[nH]cnc12)c1nc2ccc(F)cc2n1-c1cccnc1 (stereo not drawn) [Example 205, [1-(6-Fluoro-1-pyridin-3-yl-1H-benzoimidazol-2-yl)-propyl]-(9H-purin-6-yl)-amine]
247 nM | COCC(Nc1ncnc2[nH]cnc12)c1nc2ccc(F)c(F)c2n1-c1ccccc1 (stereo not drawn) [Example 190, [1-(6,7-Difluoro-1-phenyl-1H-benzoimidazol-2-yl)-2-methoxy-ethyl]-(9H-purin-6-yl)-amine]
158 nM | C[C@H](Nc1ncnc(N)c1C#N)c1nc2ccc(F)c(C#N)c2n1-c1cncc(F)c1 [Example 347, 2-[(S)-1-(6-Amino-5-cyano-pyrimidin-4-ylamino)-ethyl]-5-fluoro-3-(5-fluoro-pyridin-3-yl)-3H-benzoimidazole-4-carbonitrile]
11.9 nM | C[C@H](Nc1ncnc2[nH]cnc12)c1nc2ccc(F)c(C(=O)N3CCOCC3)c2n1C1CC1 [Example 389, [3-cyclopropyl-5-fluoro-2-[(1S)-1-(9H-purin-6-ylamino)ethyl]benzimidazol-4-yl]-morpholino-methanone]
163 nM | C[C@H](Nc1ncnc2[nH]cnc12)c1nc2ccc(F)cc2n1-c1ccn(C)n1 [Example 403, N-[(1S)-1-[6-fluoro-1-(1-methylpyrazol-3-yl)benzimidazol-2-yl]ethyl]-9H-purin-6-amine]
55.5 nM | CCC(Nc1ncnc2nc[nH]c12)c1nc2ccc(F)cc2n1-c1ccccc1 (stereo not drawn) [Example 212, [1-(6-Fluoro-1-phenyl-1H-benzoimidazol-2-yl)-propyl]-(7H-purin-6-yl)-amine]
129 nM | OCC(Nc1ncnc2nc[nH]c12)c1nc2ccc(F)cc2n1-c1ccccc1 (stereo not drawn) [Example 224, 2-(6-Fluoro-1-phenyl-1H-benzoimidazol-2-yl)-2-(7H-purin-6-ylamino)-ethanol]
149 nM | COC[C@H](Nc1ncnc2[nH]cnc12)c1nc2ccc(F)c(C)c2n1-c1ccccc1 [Example 188, [(R)-1-(6-Fluoro-7-methyl-1-phenyl-1H-benzoimidazol-2-yl)-2-methoxy-ethyl]-(9H-purin-6-yl)-amine]
80.6 nM | C[C@H](Nc1ncnc2[nH]cnc12)c1nc2ccc(F)c(Br)c2n1-c1ccccc1 [Example 178, [(S)-1-(7-Bromo-6-fluoro-1-phenyl-1H-benzoimidazol-2-yl)-ethyl]-(9H-purin-6-yl)-amine]
110 nM | C[C@H](Nc1ncnc2[nH]cnc12)c1nc2ccc(F)c(C#N)c2n1-c1cccnc1 [Example 281, 5-Fluoro-2-[(S)-1-(9H-purin-6-ylamino)-ethyl]-3-pyridin-3-yl-3H-benzoimidazole-4-carbonitrile]
107 nM | C[C@H](Nc1ncnc(N)c1C#N)c1nc2ccc(F)cc2n1-c1cnn(C)c1 [Example 418, 4-amino-6-[[(1S)-1-[6-fluoro-1-(1-methylpyrazol-4-yl)benzimidazol-2-yl]ethyl]amino]pyrimidine-5-carbonitrile]
163 nM | CC(C)n1c([C@H](C)Nc2ncnc(N)c2C#N)nc2ccc(F)c(-c3ccccn3)c21 [Example 408, 4-amino-6-[[(1S)-1-[6-fluoro-1-isopropyl-7-(2-pyridyl)benzimidazol-2-yl]ethyl]amino]pyrimidine-5-carbonitrile]

IC50 | SMILES
141 nM | Cc1nc(N)nc(N[C@@H](C)c2nc3ccc(F)cc3n2-c2ccccc2)n1 [Example 258, N—[(S)-1-(6-Fluoro-1-phenyl-1H-benzoimidazol-2-yl)-ethyl]-6-methyl-[1,3,5]triazine-2,4-diamine]
50.8 nM | CC(Nc1ncnc2[nH]cnc12)c1nc2ccc(F)cc2n1-c1ccccc1 (stereo not drawn) [Example 194, [1-(6-Fluoro-1-phenyl-1H-benzoimidazol-2-yl)-ethyl]-(9H-purin-6-yl)-amine]
145 nM | C[C@H](Nc1ncnn2ccnc12)c1nc2ccc(F)cc2n1-c1ccccn1 [Example 322, [(S)-1-(6-Fluoro-1-pyridin-2-yl-1H-benzoimidazol-2-yl)-ethyl]-imidazo[2,1-f][1,2,4]triazin-4-yl-amine]
140 nM | C[C@H](Nc1ncnc2[nH]cnc12)c1nc2ccc(F)cc2n1-c1ccnn1C [Example 417, N-[(1S)-1-[6-fluoro-1-(2-methylpyrazol-3-yl)benzimidazol-2-yl]ethyl]-9H-purin-6-amine]
106 nM | COCC(Nc1ncnc2nc[nH]c12)c1nc2ccc(F)cc2n1-c1ccccc1 (stereo not drawn) [Example 171, [1-(6-Fluoro-1-phenyl-1H-benzoimidazol-2-yl)-2-methoxy-ethyl]-(7H-purin-6-yl)-amine]
152 nM | COC[C@H](Nc1ncnc2[nH]cnc12)c1nc2ccc(F)cc2n1-c1ccccn1 [Example 270, [(R)-1-(6-Fluoro-1-pyridin-2-yl-1H-benzoimidazol-2-yl)-2-methoxy-ethyl]-(9H-purin-6-yl)-amine]
34.1 nM | C[C@H](Nc1ncnc(N)c1C#N)c1nc2ccc(F)c(Br)c2n1-c1cccnc1 [Example 301, 4-Amino-6-[(S)-1-(7-bromo-6-fluoro-1-pyridin-3-yl-1H-benzoimidazol-2-yl)-ethylamino]-pyrimidine-5-carbonitrile]
26.8 nM | C[C@H](Nc1ncnc2[nH]cnc12)c1nc2ccc(F)c(C(=O)N3CCOCC3)c2n1-c1ccccc1 [Example 273, {5-Fluoro-3-phenyl-2-[(S)-1-(9H-purin-6-ylamino)-ethyl]-3H-benzoimidazol-4-yl}-morpholin-4-yl-methanone]
10.9 nM | CC(Nc1ncnc2[nH]cnc12)c1nc2ccc(F)c(C3CC3)c2n1-c1ccccc1 (stereo not drawn) [Example 198, [1-(7-Cyclopropyl-6-fluoro-1-phenyl-1H-benzoimidazol-2-yl)-ethyl]-(9H-purin-6-yl)-amine]
83.9 nM | CC[C@H](Nc1ncnc(N)c1C#N)c1nc2ccc(F)cc2n1-c1cncc(F)c1 [Example 350, 4-Amino-6-{(S)-1-[6-fluoro-1-(5-fluoro-pyridin-3-yl)-1H-benzoimidazol-2-yl]-propylamino}-pyrimidine-5-carbonitrile]
189 nM | CC(Nc1ncnc(N)c1C#N)c1nc2cccnc2n1-c1ccccc1 (stereo not drawn) [Example 302, 4-Amino-6-[1-(3-phenyl-3H-imidazo[4,5-b]pyridin-2-yl)-ethylamino]-pyrimidine-5-carbonitrile]
67.8 nM | C[C@H](Nc1ncnc(N)c1C#N)c1nc2ccc(F)cc2n1-c1ccnn1C [Example 416, 4-amino-6-[[(1S)-1-[6-fluoro-1-(2-methylpyrazol-3-yl)benzimidazol-2-yl]ethyl]amino]pyrimidine-5-carbonitrile]
4.93 nM | COc1c(F)ccc2nc([C@H](C)Nc3ncnc(N)c3C#N)n(-c3ccccc3)c12 [Example 339, 4-Amino-6-[(S)-1-(6-fluoro-7-methoxy-1-phenyl-1H-benzoimidazol-2-yl)-ethylamino]-pyrimidine-5-carbonitrile]
43.3 nM | CC(Nc1ncnc2[nH]cnc12)c1nc2ccc(F)c(C#N)c2n1-c1ccccc1 (stereo not drawn) [Example 217, 5-Fluoro-3-phenyl-2-[1-(9H-purin-6-ylamino)-ethyl]-3H-benzoimidazole-4-carbonitrile]
16.7 nM | C[C@H](Nc1ncnc(N)c1C#N)c1nc2ccc(F)cc2n1-c1ccccc1 [Example 246, 4-Amino-6-[(S)-1-(6-fluoro-1-phenyl-1H-benzoimidazol-2-yl)-ethylamino]-pyrimidine-5-carbonitrile]
798 nM | COc1ccc(-n2c(C(C)Nc3ncnc4[nH]cnc34)nc3ccc(F)cc32)cn1 (stereo not drawn) [Example 207, {1-[6-Fluoro-1-(6-methoxy-pyridin-3-yl)-1H-benzoimidazol-2-yl]-ethyl}-(9H-purin-6-yl)-amine]
18 nM | C[C@H](Nc1ncnc(N)c1C#N)c1nc2ccc(F)cc2n1-c1cncc(F)c1 [Example 277, 4-Amino-6-{(S)-1-[6-fluoro-1-(5-fluoro-pyridin-3-yl)-1H-benzoimidazol-2-yl]-ethylamino}-pyrimidine-5-carbonitrile]
